In patent US10752626B2, “Iso-citrate dehydrogenase (IDH) inhibitor” (SHANGHAI METON PHARMACEUTICAL CO., LTD, priority 2016, dated 2020):

Test: in vitro
Details: microsomes; for % remaining #1 / % remaining #2 / Ln (% remaining) #1 / Ln (% remaining) #2 / Mean Ln(% remaining): 1 μM, pH 7.4; for microsomal CLint at 1 μM: pH 7.4, CLint; for half-life at 1 μM: pH 7.4, T1/2
Method: The liver microsomes of mouse, rat, dog, monkey and human were purchased from Corning Inc., and were stored at −60° C. prior to use. The acetonitrile and NADPH were purchased from Honeywell International Inc. (New Jersey, U.S.) and Roche Inc. (Basel, Swiss).
Reactions were initiated by adding NADPH to a final concentration of 1 mM. The final volume of each reaction mixture was 0.2 ml, and all reactions were performed in duplicate. At each set time point (0, 5, 15, 30 and 60 min), a small aliquot (e.g., 20 μl) was transferred from the reaction system into ice-cold internal standard (IS) containing acetonitrile to quench the reaction and to precipitate the protein. After vortex and centrifuge at 3700 rpm for 10 min, the supernatant was injected into LC-MS/MS for analysis.
In vitro microsomal clearance was estimated based on determination of elimination half-life (T1/2) of compounds disappearance from their initial concentrations. Peak area ratios of each compound (test or control) to IS was calculated. Ln (% Control) versus Incubation Time (min) curve was plotted, and the slope of a linear fitting line was calculated. Drug elimination rate constant k (min^−1), T1/2 (min), and in vitro intrinsic clearance CLint (mL·min^−1·mg^−1 proteins) was calculated according to the following equations: k=−slope T1/2=0.693/k CLint=k/Cprotein where Cprotein (mg·mL^−1) is the microsomal protein concentration in the incubation system. Test 3: Metabolic Stability Assay in Mouse Plasma
In this study, the metabolic stability of the compounds was assessed in mouse, rat, dog, monkey and human liver microsome according to the method disclosed in Test 2 of the Biological evaluation section.

## CCN1Cc2c(ccnc2N[C@@H](C)c2ccc(Oc3ccc(C)cc3)cc2)C1=O [Compound 16, (S)-2-ethyl-4-(1-(4-(p-tolyloxy)phenyl)ethylamino)-2,3-dihydro-1H-pyrrolo [3,4-c]pyridin-1-one]
dog, 0 h
  % remaining #1: 100%
  % remaining #2: 100%
  Ln (% remaining) #1: 4.61
  Ln (% remaining) #2: 4.61
  Mean Ln(% remaining): 4.61
dog, 5 min
  % remaining #1: 105%
  % remaining #2: 106%
  Ln (% remaining) #1: 4.65
  Ln (% remaining) #2: 4.66
  Mean Ln(% remaining): 4.66
dog, 0.25 h
  % remaining #1: 94.6%
  % remaining #2: 85.4%
  Ln (% remaining) #1: 4.55
  Ln (% remaining) #2: 4.45
  Mean Ln(% remaining): 4.50
dog, 0.5 h
  % remaining #1: 76.5%
  % remaining #2: 76.0%
  Ln (% remaining) #1: 4.34
  Ln (% remaining) #2: 4.33
  Mean Ln(% remaining): 4.33
dog, 1 h
  % remaining #1: 52.8%
  % remaining #2: 48.8%
  Ln (% remaining) #1: 3.97
  Ln (% remaining) #2: 3.89
  Mean Ln(% remaining): 3.93
dog
  microsomal CLint at 1 μM: 23 µL/min/mg
  half-life at 1 μM: 60.3 min
human
  stability in human liver microsome: medium stability
  microsomal CLint at 1 μM: 43.6 µL/min/mg
  half-life at 1 μM: 31.8 min
human, 0 h
  % remaining #1: 100%
  % remaining #2: 100%
  Ln (% remaining) #1: 4.61
  Ln (% remaining) #2: 4.61
  Mean Ln(% remaining): 4.61
human, 5 min
  % remaining #1: 87.1%
  % remaining #2: 90.5%
  Ln (% remaining) #1: 4.47
  Ln (% remaining) #2: 4.51
  Mean Ln(% remaining): 4.49
human, 0.25 h
  % remaining #1: 65.7%
  % remaining #2: 69.0%
  Ln (% remaining) #1: 4.18
  Ln (% remaining) #2: 4.23
  Mean Ln(% remaining): 4.21
human, 0.5 h
  % remaining #1: 51.7%
  % remaining #2: 50.5%
  Ln (% remaining) #1: 3.95
  Ln (% remaining) #2: 3.92
  Mean Ln(% remaining): 3.93
human, 1 h
  % remaining #1: 26.2%
  % remaining #2: 25.4%
  Ln (% remaining) #1: 3.27
  Ln (% remaining) #2: 3.23
  Mean Ln(% remaining): 3.25
monkey, 0 h
  % remaining #1: 100%
  % remaining #2: 100%
  Ln (% remaining) #1: 4.61
  Ln (% remaining) #2: 4.61
  Mean Ln(% remaining): 4.61
monkey, 5 min
  % remaining #1: 66.1%
  % remaining #2: 72.7%
  Ln (% remaining) #1: 4.19
  Ln (% remaining) #2: 4.29
  Mean Ln(% remaining): 4.24
monkey, 0.25 h
  % remaining #1: 32.5%
  % remaining #2: 35.4%
  Ln (% remaining) #1: 3.48
  Ln (% remaining) #2: 3.57
  Mean Ln(% remaining): 3.52
monkey, 0.5 h
  % remaining #1: 12.5%
  % remaining #2: 12.2%
  Ln (% remaining) #1: 2.53
  Ln (% remaining) #2: 2.51
  Mean Ln(% remaining): 2.52
monkey, 1 h
  % remaining #1: 2.13%
  % remaining #2: 2.06%
  Ln (% remaining) #1: 0.757
  Ln (% remaining) #2: 0.725
  Mean Ln(% remaining): 0.741
monkey
  microsomal CLint at 1 μM: 127 µL/min/mg
  half-life at 1 μM: 10.9 min
mouse, 0 h
  % remaining #1: 100%
  % remaining #2: 100%
  Ln (% remaining) #1: 4.61
  Ln (% remaining) #2: 4.61
  Mean Ln(% remaining): 4.61
mouse, 5 min
  % remaining #1: 88.1%
  % remaining #2: 94.2%
  Ln (% remaining) #1: 4.48
  Ln (% remaining) #2: 4.55
  Mean Ln(% remaining): 4.51
mouse, 0.25 h
  % remaining #1: 72.7%
  % remaining #2: 80.8%
  Ln (% remaining) #1: 4.29
  Ln (% remaining) #2: 4.39
  Mean Ln(% remaining): 4.34
mouse, 0.5 h
  % remaining #1: 31.0%
  % remaining #2: 43.8%
  Ln (% remaining) #1: 3.43
  Ln (% remaining) #2: 3.78
  Mean Ln(% remaining): 3.61
mouse, 1 h
  % remaining #1: 10.6%
  % remaining #2: 12.0%
  Ln (% remaining) #1: 2.36
  Ln (% remaining) #2: 2.48
  Mean Ln(% remaining): 2.42
mouse
  microsomal CLint at 1 μM: 77.4 µL/min/mg
  half-life at 1 μM: 17.9 min
rat, 0 h
  % remaining #1: 100%
  % remaining #2: 100%
  Ln (% remaining) #1: 4.61
  Ln (% remaining) #2: 4.61
  Mean Ln(% remaining): 4.61
rat, 5 min
  % remaining #1: 90.0%
  % remaining #2: 111%
  Ln (% remaining) #1: 4.50
  Ln (% remaining) #2: 4.71
  Mean Ln(% remaining): 4.61
rat, 0.25 h
  % remaining #1: 59.4%
  % remaining #2: 92.3%
  Ln (% remaining) #1: 4.09
  Ln (% remaining) #2: 4.53
  Mean Ln(% remaining): 4.31
rat, 0.5 h
  % remaining #1: 35.8%
  % remaining #2: 62.9%
  Ln (% remaining) #1: 3.58
  Ln (% remaining) #2: 4.14
  Mean Ln(% remaining): 3.86
rat, 1 h
  % remaining #1: 14.0%
  % remaining #2: 24.1%
  Ln (% remaining) #1: 2.64
  Ln (% remaining) #2: 3.18
  Mean Ln(% remaining): 2.91
rat
  microsomal CLint at 1 μM: 66.5 µL/min/mg
  half-life at 1 μM: 20.8 min
